Experimental data taken from US12344899B2, “Compositions and methods for therapeutics prescreening” (TECHNION RESEARCH & DEVELOPMENT FOUNDATION LIMITED, priority 2014, dated 2025).
Entries after “also recorded” stand apart in the source; their conditions may differ.

What was measured:
[1] = test system: 4T1 breast cancer primary tumor; test: Barcoded nanoparticles with different drugs injected simultaneously i.v.; barcode levels in live/dead tumor cells (FIG. 8); format: in vivo, BALB/c mice; conditions: for therapeutic effect rated from barcode distribution / drug barcode levels in the dead cells in comparison to the live cells: tumor biopsy 48 hours later; for therapeutic effect rated from barcode distribution: FIGS. 8A-E; for drug barcode levels in the dead cells in comparison to the live cells: cells sorted live/dead
Protocol: Barcoded nanoparticles containing control compounds or different drugs: placebo (A), caffeine (B), Cisplatin (C), Doxorubicin (D) and Gemcitabine (E), were injected simultaneously intravenously to BALB/c mice bearing a primary tumor in the hind thigh. 48 hours later, enabling the particle to accumulate in the tumor and perform the therapeutic activity, a biopsy was taken from the tumor. The biopsy tissue was then dissociated into a single-cell suspension, and the cells were screened according to their viability (live/dead). […] (F) The potency of the drugs was calculated by dividing the number of barcodes extracted from dead cells by the number of barcodes extracted from live cells for each drug. The values are presented in logarithmic scale.
In vivo transfection: 100 μl of 10^6cells/ml of 4T1 (breast cancer) was injected subcutaneous to 10 weeks balb/c female mice. About […] later (when the primary tumor was massive enough), 100 μl of liposome solution was injected intravenous. 36 hrs later, the mouse was sacrificed and its organs (+tumor) were taken in ice for further steps.
In the present study, ovarian tumors are expanded in hESC teratomas in SCID/beige mice, as previously described (Burgos-Ojeda, ibid.). Barcoded nanoparticles loaded with anti-cancer drugs are administered intravenously. Evaluation of the therapeutic task of the nanoparticle is evaluated after 48 hours which enables accumulation in the tumor and carrying out a therapeutic task. […] Post-mortem histological evaluation of the tissue is used to study the tumor bio-distribution. A biopsy sample is then dissociated into a single-cell suspension and the cells are sorted, using antibodies, according to cell subpopulation (including, CD45, CD11B, F4/80, CD13, REST) and viability (live/dead).
Barcoded nanoparticles containing five different drugs or control compounds (FIG. 8 depicts Placebo, Caffeine, Cisplatin, Doxorubicin and Gemcitabine), were injected simultaneously intravenously to BALB/c mice bearing a primary tumor in the hind thigh. 48 hours later, a biopsy was taken from the tumor. The biopsy tissue was then dissociated into a single-cell suspension, and the cells were screened according to their viability (live/dead).

[2] = test system: 4T1 breast cancer tumor; test: Therapeutic treatment validating the barcoding analysis (FIG. 9); format: in vivo, mice; conditions: for proliferation index (anti-Ki67 immunohistochemistry): tumors extracted 24 days after starting treatment, 125 mg/kg Gemcitabine i.v. weekly
Description: FIG. 9A-D. Therapeutic efficacy based on barcoding analysis. FIGS. 9A-B and D are bar graphs comparing tumor volume change between different therapeutic groups. Each group got a weekly dose of chemo drug Doxorubicin, Cisplatin, or Gemcitabine. The control group got saline. Representative tumor dimensions of each group. The tumor was extracted […] after starting the treatment. Tumor/Body weight of each group.
To validate the barcoding analysis of the three chemotherapeutic drugs—Doxorubicin, Cisplatin and Gemcitabine, therapeutic treatment was conducted. The experiment included 4 groups, each containing 6 mice. Each group was treated with single drug for 24 days, starting 10 days post tumor induction. Each dose was given intravenous once a week. Each group was treated with either 5 mg/kg of Doxorubicin, 6 mg/kg of Cisplatin, 125 mg/kg of Gemcitabine or 100 μl of saline as a control. Tumors volumes were measured with caliper and calculated as length/2*(width)^2. […] 24 days after starting the treatment, the tumor of each mouse was extracted for further analysis. […] The tumor weight parameter reflects the effectiveness of the drug to inhibit and damage the tumor growth. The body weight parameter reflects the influence of the drug on the body or how severe are the side effects of the drug. […] To check differences in the tissue level between the different groups, all the tumors were studied histologically. Tissue slides from the tumors were stained with hematoxylin and eosin. […] Additionally, tissue slides were immunohistochemically stained with rabbit monoclonal anti-Ki67 antibody (SP6; Thermo Scientific, Fremont, Calif.) to determine proliferation index (not shown).

[3] = 5 mg/kg Doxorubicin, 6 mg/kg Cisplatin

SMILES | therapeutic effect rated from barcode distribution ([1]; drug in barcoded nanoparticles) | proliferation index (anti-Ki67 immunohistochemistry) [2, 3] [%] | barcodes accumulated in the dead cells, more compare to the live cells ([1]; drug in barcoded nanoparticles, 48 hours, FIG. 8(E)) | drug barcode levels in the dead cells in comparison to the live cells [1] | tumor/body weight ratio ([2]; at sacrifice, FIG. 9(C), weekly i.v. dosing) | tumor volume change / tumor growth ([2]; i.v. once a week for 24 days, 5 mg/kg Doxorubicin, 6 mg/kg Cisplatin, 125 mg/kg Gemcitabine, FIG. 9(A))
COc1cccc2c1C(=O)c1c(O)c3c(c(O)c1C2=O)C[C@@](O)(C(=O)CO)C[C@@H]3O[C@H]1C[C@H](N)[C@H](O)[C@H](C)O1 [Doxorubicin] | clear therapeutic effect | 90 | – | – | – | –
Nc1ccn([C@@H]2O[C@H](CO)[C@@H](O)C2(F)F)c(=O)n1 [Gemcitabine] | more effective than cisplatin; also recorded: most efficient drug | 40 | 6,000 | Elevated levels | minimum tumor/body weight ratio | significantly attenuated the growth of the tumors
Cn1c(=O)c2c(ncn2C)n(C)c1=O [Caffeine] | almost no effect | – | – | – | – | –
N.N.[Cl][Pt][Cl] [Cisplatin] | clear therapeutic effect | 65 | – | Elevated levels | – | –
